Laboratory results from publication PMC5594493, “Antiproliferative factor (APF) binds specifically to sites within the cytoskeleton-associated protein 4 (CKAP4) extracellular domain” (BMC Biochemistry, 2017).
pIC50: −log10 of the molar value. Where “and” joins values, the source holds several entries; their conditions need not be identical. Equal values may be shown once. Entries after “also recorded” stand apart in the source; their conditions may differ.

Tests used:
[1] = test system: T24 bladder carcinoma cells; test: XTT cell proliferation assay, T24; type: cell-based; conditions: 20 nM, 96 h, serum-free, relative to vehicle/control, at least four independent times, P < 0.0001 vs control, as-APF vs APF P = 0.0103 (unpaired t-test, Welch's correction)
Description: T24 bladder carcinoma cells (ATCC #HTB-4; Manassas, VA) were maintained in HyClone-formulated McCoy’s 5A modified media (Catalog #SH30525.01) supplemented with 10% fetal bovine serum (FBS) (Atlanta Biologicals, Flowery Branch, GA), 100 U/ml penicillin, and 100 μg/ml streptomycin (Invitrogen, Carlsbad, CA). Cell proliferation was measured using the XTT Cell Proliferation Assay Kit (ATCC). T24 cells were seeded at 1 × 10^3–4 × 10^3 per well in a 48-well plate in 300 μl/well McCoy’s supplemented medium. Cells were serum-starved for 24 h and then treated with either 20 nM APF, 20 nM as-APF, or 25 μM H2O2 (antiproliferative control) diluted in serum-free McCoy’s medium. Cells were incubated at 37 °C in a 5% CO2 atmosphere for an additional 96 h, after which 150 μl of activated–XTT solution was added to each well followed by an additional 3 h incubation. Absorbance was then measured at 475 nm and 660 nm using an M5 microplate reader (Molecular Devices, Sunnyvale, CA), and the specific absorbance was calculated. P values were assigned using unpaired t-test with Welch’s correction. The assay was repeated four independent times.

[2] = test system: CKAP4_106–602; test: SPR, CKAP4_106–602 as immobilized ligand; type: binding; conditions: CKAP4_106–602 immobilized on NTA chip
Description: All SPR experiments were performed on a Biacore X-100 instrument (GE Healthcare) with the chip surface at 25 °C using PBS containing 0.01% Tween-20 as running buffer. CKAP4 recombinant proteins were immobilized individually either by Ni^2+/nitrilotriacetic acid (NTA) chelation on Sensor Chip NTA or by amine-coupling on Sensor Chip CM5, on the Fc2 channel. For amine-coupling, the sensor surface on both flow cells was activated for 7 min with a 1:1 mixture of 0.1 M EDC (1-ethyl-3-(3-dimethylaminopropyl) carbodiimide hydrochloride) and 0.1 M NHS (N-hydroxysuccinimide) at a flow rate of 5 μl/min. Immobilization of CKAP4 proteins (on Fc2) was performed in 10 mM sodium acetate buffer, at either pH 4.5, 5.0, or 5.5 based on preliminary pH scouting runs, for optimal binding. Unreacted NHS groups were quenched with a 7 min injection of 1 M ethanolamine pH 8.5. The Fc1 channel was treated similarly but without CKAP4 and served as a reference. Upon stabilization of the baseline signal, multi-cycle kinetics assays were performed with injections of as-APF as analyte at various concentrations (2.5–40 μM) in running buffer at 30 μl/min for 2 min, immediately followed by a 3 min dissociation phase. […] The data were analyzed using Biacore Evaluation software V2.0. […]

[3] = test system: cell proliferation; conditions: cited from earlier work
Description: Cells were treated with 20 nM APF or as-APF for 96 h and the rate of cell growth was measured using the XTT proliferation assay. […] The rate of growth of T24 cells was reduced by 47% with APF and by 60% with as-APF, relative to cells treated with vehicle alone; moreover, the difference in the antiproliferative effect of as-APF and APF was de ...

[4] = test system: full-length CKAP4; test: SPR binding to full-length His-tagged CKAP4
Description: FL-CKAP4 was expressed in HEK 293 T cells (ATCC) and similarly purified by IMAC. Briefly, HEK 293 T cells were transfected with pcDNA3.1/V5-His TOPO vector (Life Technologies) expressing FL-CKAP4 using X-tremeGENE 9 transfection reagent (Roche) according to manufacturer’s protocol. Cells were harvested after transient expression (24 h) and held at −80 °C before proceeding to purification. Cell lysate was prepared in PBS buffer containing 10 mM CHAPS, 20 mM imidazole and EDTA-free protease inhibitor cocktail and sonicated before proceeding to protein purification, as described above. All purified proteins were quantitated by the BCA method according to the manufacturer’s protocol using BSA as the standard (ThermoScientific). Because of the varied amino acid compositions of the purified recombinant proteins, the UV (λ280nm) absorbance method was also used for reference.
All SPR experiments were performed on a Biacore X-100 instrument (GE Healthcare) with the chip surface at 25 °C using PBS containing 0.01% Tween-20 as running buffer. CKAP4 recombinant proteins were immobilized individually either by Ni^2+/nitrilotriacetic acid (NTA) chelation on Sensor Chip NTA or by amine-coupling on Sensor Chip CM5, on the Fc2 channel. […] The data were analyzed using Biacore Evaluation software V2.0. […]

In the case of “Neu5Acα2 − 3Galβ1 − 3GalNAcα-O-TVPAAVVVA [APF]”, the “reduction of T24 cell proliferation” value [1] is given as 47% and 47.08 ± 12.88%, the binding [2] is given as “did not bind robustly; also recorded: did not generate sufficient binding” and the “relative antiproliferative effect of as-APF and APF” value ([3]; ref [2]) is given as “more or less equipotent”. For the same substance, the pIC50 ([3]; ref [3], read-out: IC50, inhibition of proliferation) was roughly 9.00, the binding ([4]; CKAP4FL immobilized via His-tag on NTA chip) was “did not generate sufficient binding” and the binding activity ([4]; full-length His-tagged CKAP4 purified from mammalian cells) was “did not detect appreciable binding activity”.
